Experimental data published in US20210179577A1, “AROMATIC SULFONAMIDE DERIVATIVES FOR THE TREATMENT OF ISCHEMIC STROKE” (Bayer Aktiengesellschaft, priority 2017, published 2021).
pIC50: −log10 of the molar value.

Columns and labels:
Type in all cases: cell-based
human P2X4 = biological target: T1, human P2X4 (Homo sapiens, UniProt Q99571); test: Human P2X4 HEK Cell FLIPR Assay; design: expressed in transfected cells; host or cells: HEK293; settings: HEK293 cells, agonist Bz-ATP at EC80
T1 sequence (Q99571 1-388): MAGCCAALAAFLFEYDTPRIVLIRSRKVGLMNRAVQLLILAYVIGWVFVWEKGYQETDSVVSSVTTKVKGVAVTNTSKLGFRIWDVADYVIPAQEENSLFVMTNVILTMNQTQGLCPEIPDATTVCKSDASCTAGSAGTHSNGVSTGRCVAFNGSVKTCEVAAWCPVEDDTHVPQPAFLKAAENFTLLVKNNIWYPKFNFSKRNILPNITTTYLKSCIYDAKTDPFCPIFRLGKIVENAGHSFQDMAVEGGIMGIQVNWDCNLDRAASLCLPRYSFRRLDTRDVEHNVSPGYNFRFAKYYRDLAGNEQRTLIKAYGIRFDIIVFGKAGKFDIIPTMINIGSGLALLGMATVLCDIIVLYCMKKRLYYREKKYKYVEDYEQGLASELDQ
Experimental: HEK293 cells stably expressing human P2X4 were plated in poly-D-lysine-coated 384-well plates at a seeding density of 30000 cells/well and incubated overnight. P2X4 function was assessed by measuring intracellular calcium changes using the calcium-chelating dye Fluo8-AM (Molecular Devices) on a fluorescent imaging plate reader (FLEX/FLIPR station; Molecular Devices). On the day of the assay, the medium was removed and the cells were incubated for 30 min at 37° C. and 5% CO2 in 30 μL of dye buffer (Hank's balanced salt solution, 10 mM HEPES, 1.8 mM CaCl2, 1 mM MgCl2, 2 mM probenecid, 5 mM D-glucose monohydrate, 5 μM Fluo8-AM, pH=7.4). Compounds diluted in probenecid buffer (Hank's balanced salt solution, 10 mM HEPES, 1.8 mM CaCl2, 1 mM MgCl2, 2 mM probenecid, 5 mM D-glucose monohydrate, pH=7.4) were added in a volume of 10 μL and allowed to incubate for 30 min at room temperature. The final assay DMSO concentration was 0.5%. The agonist, Bz-ATP (Tocris), was added in a volume of 10 μL at a concentration representing the EC80 value. The EC80 value of Bz-ATP was determined each assay day prior to compound profiling. The fluorescence was measured for an interval of 120 sec at 2 sec intervals. The excitation and emission wavelengths used to monitor fluorescence were 470-495 nm and 515-575 nm, respectively. The data was analyzed based on the increase in peak relative fluorescence units (RFU) compared to the basal fluorescence and the data was normalized to the agonist control. The compounds were tested in triplicates per plate and mean values were plotted in Excel XL-Fit to determine IC50 values, percentage of maximal inhibition and the Hill coefficients.

rat P2X4 = biological target: T2, rat P2X4 (Rattus norvegicus, UniProt P51577); test: FLIPR assay, rat P2X4 1321N1 Astrocytoma Cells; settings: agonist Mg-ATP at EC80
T2 construct: expressed in transfected cells; host or cells: 1321N1 astrocytoma cells
T2 sequence (P51577 1-388): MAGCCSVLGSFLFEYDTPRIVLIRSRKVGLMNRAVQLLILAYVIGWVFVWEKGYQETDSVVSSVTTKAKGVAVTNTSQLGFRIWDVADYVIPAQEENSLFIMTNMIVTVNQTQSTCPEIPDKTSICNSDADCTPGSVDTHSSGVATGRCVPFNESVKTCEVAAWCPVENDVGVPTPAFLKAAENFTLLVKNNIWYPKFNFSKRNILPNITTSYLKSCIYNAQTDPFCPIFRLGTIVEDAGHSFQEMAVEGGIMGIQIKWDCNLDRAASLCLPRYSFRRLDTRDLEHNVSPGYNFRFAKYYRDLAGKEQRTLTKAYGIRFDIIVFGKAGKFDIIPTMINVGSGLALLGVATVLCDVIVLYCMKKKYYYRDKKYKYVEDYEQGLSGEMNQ
Experimental: (§1) 1321N1 Astrocytoma cells stably expressing human P2X4 or rat P2X4 or mouse P2X4 were plated in Collagen ITO-treated microplate at a seeding density of 10000 cells/well and incubated overnight. P2X4 function was assessed by measuring intracellular calcium changes using the calcium-chelating dye Fluo8-AM (Molecular Devices) on a fluorescent imaging plate reader (FLEX/FLIPR station; Molecular Devices). On the day of the assay, the medium was removed and the cells were incubated for 30 min at […] and 5% CO2 in 30 μL of dye buffer (Hank's balanced salt solution, 10 mM HEPES, 1.8 mM CaCl2, 1 mM MgCl2, 2 mM probenecid, 5 mM D-glucose monohydrate, 5 μM Fluo8-AM, pH=7.4). Compounds diluted in probenecid buffer (Hank's balanced salt solution, 10 mM HEPES, 1.8 mM CaCl2, 1 mM MgCl2, 2 mM probenecid, 5 mM D-glucose monohydrate, pH=7.4) were added in a volume of 10 μL and allowed to incubate for 30 min at room temperature. The final assay DMSO concentration was 0.25%. The agonist, Mg-ATP (Sigma), was added in a volume of 10 μL at a concentration representing the EC80 value. EC80 was determined to be 0.5 μM for human and mouse P2X4 and 5 μM for rat P2X4. The fluorescence was measured for an interval of 120 sec at 2 sec intervals. The excitation and emission wavelengths used to monitor fluorescence were 470-495 nm and 515-575 nm, respectively. The data was analyzed based on the increase in peak relative fluorescence units (RFU) compared to the basal fluorescence and the data was normalized to the agonist control. The compounds were tested in triplicates per plate and mean values were plotted in Excel XLFit to determine IC50 values, percentage of maximal inhibition and the Hill coefficients.

mouse P2X4 = biological target: T3, mouse P2X4 (Mus musculus, UniProt Q9JJX6); test: FLIPR assay, mouse P2X4 1321N1 Astrocytoma Cells; settings: agonist Mg-ATP at EC80
T3 construct: expressed in transfected cells; host or cells: 1321N1 astrocytoma cells
T3 sequence (Q9JJX6 1-388): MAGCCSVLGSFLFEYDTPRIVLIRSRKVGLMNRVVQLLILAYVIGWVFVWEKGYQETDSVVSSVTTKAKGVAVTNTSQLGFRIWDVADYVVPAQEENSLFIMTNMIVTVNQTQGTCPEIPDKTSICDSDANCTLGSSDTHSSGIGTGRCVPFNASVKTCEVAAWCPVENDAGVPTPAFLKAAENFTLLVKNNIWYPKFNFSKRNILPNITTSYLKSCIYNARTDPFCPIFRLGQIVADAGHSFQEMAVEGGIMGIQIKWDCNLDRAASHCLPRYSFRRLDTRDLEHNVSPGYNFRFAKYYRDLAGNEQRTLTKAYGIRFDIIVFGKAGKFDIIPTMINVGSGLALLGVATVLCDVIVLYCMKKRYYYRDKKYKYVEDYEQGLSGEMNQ
Experimental: as §1

Row | SMILES | pIC50 (human P2X4) | pIC50 (rat P2X4) | Rat P2X4 1321N1 Astrocytoma Cells (FLIPR Assay) avg Efficacy (rat P2X4) [%] | pIC50 (mouse P2X4) | Mouse P2X4 1321N1 Astrocytoma Cells (FLIPR Assay) avg Efficacy (mouse P2X4) [%]
1 | NS(=O)(=O)c1cc(NC(=O)Cc2ccccc2Cl)cnc1-n1cc(C(F)(F)F)cn1 [Example 380, 2-(2-Chlorophenyl)-N-{5-sulfamoyl-6-[4-(trifluoromethyl)-1H-pyrazol-1-yl]pyridin-3-yl}acetamide] | 6.52 | – | – | – | –
2 | NS(=O)(=O)c1cc(NC(=O)Cc2ccccc2Cl)ccc1-c1cnn(C(F)F)c1 [Example 326, 2-(2-Chlorophenyl)-N-{4-[1-(difluoromethyl)-1H-pyrazol-4-yl]-3-sulfamoylphenyl}acetamide] | 7.77 | 6.49 | 99 | 7.59 | 87
3 | NS(=O)(=O)c1cc(NC(=O)Cc2ccccc2Cl)ccc1-n1cc(C(F)(F)F)cn1 [Example 19, 2-(2-Chlorophenyl)-N-{3-sulfamoyl-4-[4-(trifluoromethyl)-1H-pyrazol-1-yl]phenyl}acetamide] | 7.33 | 7.15 | 57 | 7.37 | 69
4 | NS(=O)(=O)c1cc(NC(=O)Cc2ccccc2Cl)ccc1-n1cc(F)cn1 [Example 26, 2-(2-Chlorophenyl)-N-[4-(4-fluoro-1H-pyrazol-1-yl)-3-sulfamoylphenyl]acetamide] | 7.57 | – | – | – | –
5 | N#Cc1cnn(-c2ccc(NC(=O)Cc3ccccc3Cl)cc2S(N)(=O)=O)c1 [Example 39, 2-(2-Chlorophenyl)-N-[4-(4-cyano-1H-pyrazol-1-yl)-3-sulfamoylphenyl]acetamide] | 7.49 | 6.51 | 87 | 7.43 | 87
